Blank lines part the entries; values can stand above or below the molecule they belong to.
Tests used:
Assay type in all cases: in vivo
Oryza sativa = test: Crop compatibility post-emergence, greenhouse pot test; conditions: application rate 20 g/ha
Method in brief: (§1)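 Crops grown in sandy loam in greenhouse pots; treated post-emergence at one-leaf stage, 2–3 weeks after sowing, spraying WP or EC formulations as aqueous suspension/emulsion with 0.5% additive at 600 L/ha. Damage scored visually after about 3 weeks against untreated controls (0% = like control, 100% = dead).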

Zea mays = test: as above; conditions: application rate 20 g/ha
Method in brief: as §1

Matricaria inodora [1] = test: Herbicidal action pre-emergence, greenhouse pot test; conditions: application rate 320 g/ha
Text: Seeds of mono- and dicotyledonous weeds and crop plants were laid out in plastic or organic plant pots and covered with soil. The compounds of the invention formulated in the form of wettable powders (WP) or as emulsion concentrates (EC) were then applied to the surface of the covering soil as an aqueous suspension or emulsion with addition of 0.5% additive at a water application rate equivalent to 600 L/ha. After the treatment, the pots were placed in a greenhouse and kept under good growth conditions for the test plants. After about 3 weeks, the efficacy of the preparations was scored visually as a percentage by comparison with untreated controls. For example, 100% efficacy=plants have died. 0% efficacy=like control plants. Tables B1 to B17 below show the efficacies of selected compounds of the general formula (I) […] aforementioned trial method.

Stellaria media [2] = test: as above; conditions: application rate 320 g/ha
Method in brief: (§2)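 Visual scoring of percentage efficacy against untreated controls, about 3 weeks after treatment, gives the value; 100% means dead plants, 0% means no difference. Test compounds went onto the covering soil of freshly sown pots at 320 g/ha or lower.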

Pharbitis purpurea [3] = test: as above; conditions: application rate 320 g/ha
Method in brief: as §2

Lolium rigidum [4] = test: as above; conditions: application rate 320 g/ha
Method in brief: as §2

Abutilon theophrasti [5] = test: as above; conditions: application rate 320 g/ha
Method in brief: as §2

Avena fatua [6] = test: as above; conditions: application rate 320 g/ha
Method in brief: as §2

Setaria viridis [7] = test: as above; conditions: application rate 320 g/ha
Method in brief: as §2

Alopecurus myosuroides [8] = test: as above; conditions: application rate 320 g/ha
Method in brief: as §2

Amaranthus retroflexus [9] = test: as above
Method in brief: as §2

Cyperus esculentus = test: as above; conditions: application rate 320 g/ha
Method in brief: as §2

Viola tricolor [10] = test: as above; conditions: application rate 320 g/ha
Method in brief: as §2

Hordeum murinum = test: as above; conditions: application rate 320 g/ha
Method in brief: as §2

Polygonum convolvulus [11] = test: as above; conditions: application rate 320 g/ha
Method in brief: as §2

Echinochloa crus-galli [12] = test: as above; conditions: application rate 320 g/ha
Method in brief: as §2

Veronica persica [13] = test: as above; conditions: application rate 320 g/ha
Method in brief: as §2

Stellaria media [14] = test: Herbicidal action post-emergence, greenhouse pot test
Method in brief: (§3)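 Compounds formulated as wettable powders or emulsion concentrates were applied post-emergence at 80 g/ha or lower to one-leaf plants grown in sandy loam. Percent efficacy relative to untreated controls was assessed visually roughly 3 weeks after treatment.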

Pharbitis purpurea [15] = test: as above
Method in brief: as §3

Lolium rigidum [16] = test: as above; conditions: application rate 80 g/ha
Method in brief: as §3

Abutilon theophrasti [17] = test: as above
Method in brief: as §3

Setaria viridis [18] = test: as above
Method in brief: as §3

Matricaria inodora [19] = test: as above
Method in brief: as §3

Alopecurus myosuroides [20] = test: as above; conditions: application rate 80 g/ha, scored visually after about 3 weeks vs untreated controls
Method in brief: as §3

Amaranthus retroflexus [21] = test: as above
Method in brief: as §3

Viola tricolor [22] = test: as above
Method in brief: as §3

Polygonum convolvulus [23] = test: as above; conditions: application rate 80 g/ha
Method in brief: as §3

Echinochloa crus-galli [24] = test: as above
Method in brief: as §3

Veronica persica [25] = test: as above
Method in brief: as §3

Triticum aestivum = test: Crop compatibility post-emergence, greenhouse pot test; conditions: application rate 20 g/ha
Method in brief: as §1

Avena fatua [26] = test: Herbicidal action post-emergence, greenhouse pot test; conditions: application rate 80 g/ha
Method in brief: as §3

- Oryza sativa (Efficacy in %) (Oryza sativa): 20%
- Zea mays (Efficacy in %) (Zea mays): 10%
Compound: CCNC(=O)COC(=O)C(C)Sc1cc(-n2c(=O)cc(C(F)(F)F)n(C)c2=O)c(F)cc1Cl (centres unmarked) [I.1-183]
- Matricaria inodora (Efficacy in %) (Matricaria inodora [1]): 100%
- Stellaria media (Efficacy in %) (Stellaria media [2]): 100%
- Pharbitis purpurea (Efficacy in %) (Pharbitis purpurea [3]): 100%
- Lolium rigidum (Efficacy in %) (Lolium rigidum [4]): 90%
- Abutilon theophrasti (Efficacy in %) (Abutilon theophrasti [5]): 100%
- Avena fatua (Efficacy in %) (Avena fatua [6]): 90%
- Setaria viridis (Efficacy in %) (Setaria viridis [7]): 100%
- Alopecurus myosuroides (Efficacy in %) (Alopecurus myosuroides [8]): 90%
- Amaranthus retroflexus (Efficacy in %) (Amaranthus retroflexus [9]; application rate 80 g/ha): 100%
- Cyperus esculentus (Efficacy in %) (Cyperus esculentus): 80%
- Viola tricolor (Efficacy in %) (Viola tricolor [10]): 100%
- Hordeum murinum (Efficacy in %) (Hordeum murinum): 90%
- Polygonum convolvulus (Efficacy in %) (Polygonum convolvulus [11]): 100%
- Echinochloa crus-galli (Efficacy in %) (Echinochloa crus-galli [12]): 100%
- Veronica persica (Efficacy in %) (Veronica persica [13]): 100%
- Stellaria media (Efficacy in %) (Stellaria media [14]; application rate 20 g/ha): 100%
- Pharbitis purpurea (Efficacy in %) (Pharbitis purpurea [15]; application rate 80 g/ha): 100%
- Lolium rigidum (Efficacy in %) (Lolium rigidum [16]): 100%
- Abutilon theophrasti (Efficacy in %) (Abutilon theophrasti [17]; application rate 80 g/ha): 100%
- Setaria viridis (Efficacy in %) (Setaria viridis [18]; application rate 80 g/ha): 100%
- Matricaria inodora (Efficacy in %) (Matricaria inodora [19]; application rate 80 g/ha): 100%
- Alopecurus myosuroides (Efficacy in %) (Alopecurus myosuroides [20]): 80%
- Amaranthus retroflexus (Efficacy in %) (Amaranthus retroflexus [21]; application rate 80 g/ha): 100%
- Viola tricolor (Efficacy in %) (Viola tricolor [22]; application rate 20 g/ha): 100%
- Polygonum convolvulus (Efficacy in %) (Polygonum convolvulus [23]): 100%
- Echinochloa crus-galli (Efficacy in %) (Echinochloa crus-galli [24]; application rate 80 g/ha): 100%
- Veronica persica (Efficacy in %) (Veronica persica [25]; application rate 20 g/ha): 100%

- Oryza sativa (Efficacy in %) (Oryza sativa): 20%
- Triticum aestivum (Efficacy in %) (Triticum aestivum): 10%
- Zea mays (Efficacy in %) (Zea mays): 10%
Compound: CC(Sc1cc(-n2c(=O)cc(C(F)(F)F)n(C)c2=O)c(F)cc1Cl)C(=O)OC1CCNC1=O (centres unmarked) [I.1-251]
- Matricaria inodora (Efficacy in %) (Matricaria inodora [1]): 100%
- Pharbitis purpurea (Efficacy in %) (Pharbitis purpurea [3]): 100%
- Abutilon theophrasti (Efficacy in %) (Abutilon theophrasti [5]): 100%
- Avena fatua (Efficacy in %) (Avena fatua [6]): 90%
- Setaria viridis (Efficacy in %) (Setaria viridis [7]): 100%
- Alopecurus myosuroides (Efficacy in %) (Alopecurus myosuroides [8]): 100%
- Amaranthus retroflexus (Efficacy in %) (Amaranthus retroflexus [9]; application rate 80 g/ha): 100%
- Cyperus esculentus (Efficacy in %) (Cyperus esculentus): 80%
- Viola tricolor (Efficacy in %) (Viola tricolor [10]): 100%
- Hordeum murinum (Efficacy in %) (Hordeum murinum): 90%
- Polygonum convolvulus (Efficacy in %) (Polygonum convolvulus [11]): 100%
- Echinochloa crus-galli (Efficacy in %) (Echinochloa crus-galli [12]): 100%
- Veronica persica (Efficacy in %) (Veronica persica [13]): 100%
- Stellaria media (Efficacy in %) (Stellaria media [14]; application rate 80 g/ha): 100%
- Pharbitis purpurea (Efficacy in %) (Pharbitis purpurea [15]; application rate 80 g/ha): 100%
- Lolium rigidum (Efficacy in %) (Lolium rigidum [16]): 100%
- Abutilon theophrasti (Efficacy in %) (Abutilon theophrasti [17]; application rate 80 g/ha): 100%
- Avena fatua (Efficacy in %) (Avena fatua [26]): 80%
- Setaria viridis (Efficacy in %) (Setaria viridis [18]; application rate 20 g/ha): 100%
- Matricaria inodora (Efficacy in %) (Matricaria inodora [19]; application rate 80 g/ha): 100%
- Alopecurus myosuroides (Efficacy in %) (Alopecurus myosuroides [20]): 100%
- Amaranthus retroflexus (Efficacy in %) (Amaranthus retroflexus [21]; application rate 80 g/ha): 100%
- Viola tricolor (Efficacy in %) (Viola tricolor [22]; application rate 80 g/ha): 100%
- Polygonum convolvulus (Efficacy in %) (Polygonum convolvulus [23]): 100%
- Echinochloa crus-galli (Efficacy in %) (Echinochloa crus-galli [24]; application rate 80 g/ha): 100%
- Veronica persica (Efficacy in %) (Veronica persica [25]; application rate 80 g/ha): 100%

Compound: COC(=O)CC(CC(=O)OC)OC(=O)CSc1cc(-n2c(=O)cc(C(F)(F)F)n(C)c2=O)c(F)cc1Cl [I.8-127]
- Matricaria inodora (Efficacy in %) (Matricaria inodora [1]): 100%
- Stellaria media (Efficacy in %) (Stellaria media [2]): 100%
- Pharbitis purpurea (Efficacy in %) (Pharbitis purpurea [3]): 100%
- Lolium rigidum (Efficacy in %) (Lolium rigidum [4]): 90%
- Abutilon theophrasti (Efficacy in %) (Abutilon theophrasti [5]): 100%
- Setaria viridis (Efficacy in %) (Setaria viridis [7]): 100%
- Amaranthus retroflexus (Efficacy in %) (Amaranthus retroflexus [9]; application rate 20 g/ha): 100%
- Cyperus esculentus (Efficacy in %) (Cyperus esculentus): 90%
- Hordeum murinum (Efficacy in %) (Hordeum murinum): 90%
- Polygonum convolvulus (Efficacy in %) (Polygonum convolvulus [11]): 100%
- Echinochloa crus-galli (Efficacy in %) (Echinochloa crus-galli [12]): 100%
- Veronica persica (Efficacy in %) (Veronica persica [13]): 100%
- Stellaria media (Efficacy in %) (Stellaria media [14]; application rate 20 g/ha): 100%
- Pharbitis purpurea (Efficacy in %) (Pharbitis purpurea [15]; application rate 20 g/ha): 100%
- Lolium rigidum (Efficacy in %) (Lolium rigidum [16]): 90%
- Abutilon theophrasti (Efficacy in %) (Abutilon theophrasti [17]; application rate 20 g/ha): 100%
- Avena fatua (Efficacy in %) (Avena fatua [26]): 80%
- Setaria viridis (Efficacy in %) (Setaria viridis [18]; application rate 20 g/ha): 100%
- Matricaria inodora (Efficacy in %) (Matricaria inodora [19]; application rate 20 g/ha): 100%
- Alopecurus myosuroides (Efficacy in %) (Alopecurus myosuroides [20]): 80%
- Amaranthus retroflexus (Efficacy in %) (Amaranthus retroflexus [21]; application rate 20 g/ha): 100%
- Viola tricolor (Efficacy in %) (Viola tricolor [22]; application rate 80 g/ha): 100%
- Polygonum convolvulus (Efficacy in %) (Polygonum convolvulus [23]): 100%
- Echinochloa crus-galli (Efficacy in %) (Echinochloa crus-galli [24]; application rate 20 g/ha): 100%
- Veronica persica (Efficacy in %) (Veronica persica [25]; application rate 20 g/ha): 100%

Source: patent US11274083B2, “Substituted thiophenyl uracils, salts thereof and the use thereof as herbicidal agents” (Syngenta Crop Protection AG, priority 2017, dated 2022)
